In publication PMC11009276, “Design, synthesis, biological assessment and molecular modeling studies of novel imidazothiazole-thiazolidinone hybrids as potential anticancer and anti-inflammatory agents” (Scientific Reports, 2024):

Key:
[1] = tested on: HEK293 human embryonic kidney cell line; experiment: MTT cytotoxicity assay, normal cell line HEK293; format: cell-based; conditions: HEK293, MTT, 72 h, normal cell line, read-out: IC50 (Mean ± SD) HEK293
Experimental: All the synthesized imidazothiazole derivatives linked with thiazolidinone moiety (4a-g and 5a-d, Fig. 4) were evaluated for their in- vitro anticancer activities against three selected human cancer cell lines namely non-small lung (A549), breast (MCF7) and colorectal (HCT116) and one normal human embryonic kidney cell line (HEK293) using the 3‐(4,5‐Dimethylthiazol‐2‐yl)-2,5‐Diphenyltetrazolium Bromide (MTT) assay method. […]. […].
Cytotoxicity study of the newly synthesized derivatives 4a-g and 5a-d was performed by MTT colorimetric assay method. […] Compounds were tested against selected cancer cell lines namely A549 (Lung), MCF-7(Breast) HCT116 (Colon), normal human embryonic kidney cell line (HEK293) and procured from National Centre for Cell Science Complex (NCCS) Pune University, India. Into a 96 well plate, cells were seeded into each well (3 × 10^3 cells/ per well), the plate were incubated for 24 h, after that the culture medium was discarded and replaced with fresh medium along with our newly synthesized test compounds in different concentration (10, 20, 40 and 80 µM) followed by incubation for 72 h. Further, the media of each well of the plates were aspirated with the addition of 100 µL MTT solution followed by incubation for the next 5 h at 37 °C. Finally, each well is treated with DMSO (100 µL) and swirled to dissolve the dark crystals of formazan. ELISA reader was used to measure the absorbance at 570 nm. The experiment was repeated three times; Graph pad prism and excel are used to calculate the IC50 values.

A549 cells = experiment: DAPI nuclear staining; format: cell-based, human; conditions: IC50 dose, 48 h
Experimental: A549 cells were treated with compound 4a, 4b, 4c and morphological changes were observed after nuclear staining with 4′,6‐diamidino‐2‐phenylindole (DAPI).
Cellular nuclear morphology was evaluated by fluorescence microscopy following DAPI staining. […] After incubation, the cells were again gently washed with PBS and the coverslips were mounted on sterile slides using a DPX mounting medium. The prepared slides were observed under a fluorescence microscope (Nikon) having a blue or cyan filter at × 40 magnification.

[2] = Acute oral toxicity study; conditions: Wistar, rat, in vivo, 500 mg/kg
Experimental: Doxorubicin is used as standard drug […].
Animals (Wistar rats) procured were divided into three groups randomly, with six rats in each group. […] Group III is taken as control; all the animals were treated with 0.5 ml of sunflower oil per rat. All the animals were under observation, and after 24 h, mortality of treated animals was recorded. […] All the experiments performed were carried out with the approval of the IAEC, Jamia Hamdard, New Delhi.

With `CC1SC(c2c(-c3ccccc3)nc3sccn23)N(c2ccc(Cl)cc2)C1=O` (stereo not drawn) [Compound 4b, 3-(4-Chlorophenyl)-5-methyl-2-(6-phenylimidazo[2,1-b]thiazol-5-yl) thiazolidin-4-one] the IC50 [1] was 101 ± 3.41 µM, the “Nuclear morphological change (DAPI)” value (A549 cells) was “chromatin condensation and nuclear fragmentation and margination of nucleus” and the LD50 at 14 days [2] was > 500 mg/kg.

For `CC1SC(c2c(-c3ccccc3)nc3sccn23)N(c2ccc(F)cc2)C1=O` (stereo not drawn) [Compound 4a, 3-(4-Fluorophenyl)-5-methyl-2-(6-phenylimidazo[2,1-b]thiazol-5-yl) thiazolidin-4-one], the IC50 [1] was 147 ± 4.3 µM, the “Nuclear morphological change (DAPI)” value (A549 cells) was “chromatin condensation and nuclear fragmentation and margination of nucleus” and the melting point was 165 to 167 °C.

In the case of `CC1SC(c2c(-c3ccccc3)nc3sccn23)N(c2ccc(Br)cc2)C1=O` (stereo not drawn) [Compound 4c, 3-(4-Bromophenyl)-5-methyl-2-(6-phenylimidazo[2,1-b]thiazol-5-yl) thiazolidin-4-one], the IC50 [1] is reported as 96.4 ± 1.79 µM, the “Nuclear morphological change (DAPI)” value (A549 cells) is reported as “chromatin condensation and nuclear fragmentation and margination of nucleus” and the LD50 at 14 days [2] is reported as > 500 mg/kg.
